Reference: ChEMBL document CHEMBL1201862, “PubChem BioAssay data set” (2004)
Activity calls are given as the source filed them. For most assays here, no stated cut-off is given here; in the data, actives have a measured IC50 and inactives only a lower limit.

Assays:
Assay type in all cases: functional
[1] = molecular target: T1, Tyrosine-protein phosphatase non-receptor type 7 (Homo sapiens, UniProt P35236)
T1 sequence (P35236 whole entry): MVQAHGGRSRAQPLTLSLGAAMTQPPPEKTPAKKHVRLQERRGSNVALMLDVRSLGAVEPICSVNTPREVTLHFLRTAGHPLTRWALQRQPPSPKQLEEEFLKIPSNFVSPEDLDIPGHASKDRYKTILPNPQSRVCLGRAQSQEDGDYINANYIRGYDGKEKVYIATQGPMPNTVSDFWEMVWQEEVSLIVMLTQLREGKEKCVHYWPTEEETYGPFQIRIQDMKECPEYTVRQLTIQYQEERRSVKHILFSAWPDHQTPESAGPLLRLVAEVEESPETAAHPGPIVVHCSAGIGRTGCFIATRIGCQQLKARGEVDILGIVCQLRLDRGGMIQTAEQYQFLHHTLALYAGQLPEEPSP

[2] = molecular target: T2, Tyrosine-protein phosphatase non-receptor type 22 (Homo sapiens, UniProt Q9Y2R2)
T2 sequence (Q9Y2R2 whole entry): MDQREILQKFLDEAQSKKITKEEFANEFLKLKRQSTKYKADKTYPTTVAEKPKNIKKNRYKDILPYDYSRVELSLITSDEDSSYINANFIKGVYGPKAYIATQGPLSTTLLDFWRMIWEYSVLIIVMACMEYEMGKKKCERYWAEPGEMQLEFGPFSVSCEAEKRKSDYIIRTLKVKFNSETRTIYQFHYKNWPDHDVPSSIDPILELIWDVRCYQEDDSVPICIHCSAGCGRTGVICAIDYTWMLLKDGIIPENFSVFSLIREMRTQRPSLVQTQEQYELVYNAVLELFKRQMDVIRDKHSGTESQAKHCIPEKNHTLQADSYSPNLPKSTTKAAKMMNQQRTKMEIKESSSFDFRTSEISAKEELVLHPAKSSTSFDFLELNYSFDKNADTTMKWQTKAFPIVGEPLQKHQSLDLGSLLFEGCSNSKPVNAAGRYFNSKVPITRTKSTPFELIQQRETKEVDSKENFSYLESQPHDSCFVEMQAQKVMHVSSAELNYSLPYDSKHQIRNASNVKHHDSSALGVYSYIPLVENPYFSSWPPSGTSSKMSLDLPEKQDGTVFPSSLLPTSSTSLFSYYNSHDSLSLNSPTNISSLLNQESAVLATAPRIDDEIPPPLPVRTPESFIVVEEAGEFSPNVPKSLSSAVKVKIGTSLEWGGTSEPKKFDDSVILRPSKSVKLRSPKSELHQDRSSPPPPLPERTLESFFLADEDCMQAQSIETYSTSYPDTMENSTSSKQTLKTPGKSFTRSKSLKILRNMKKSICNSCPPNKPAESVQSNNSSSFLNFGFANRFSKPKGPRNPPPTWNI

[3] = molecular target: T2, Tyrosine-protein phosphatase non-receptor type 22; remark: listed apart in the source
[4] = molecular target: T3, Ubiquitin-conjugating enzyme E2 N (Homo sapiens, UniProt P61088);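 further: Dose-response confirmation in a TR-FRET assay detecting UBC13-driven polyubiquitin chain formation, inhibition measured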
T3 sequence (P61088 whole entry): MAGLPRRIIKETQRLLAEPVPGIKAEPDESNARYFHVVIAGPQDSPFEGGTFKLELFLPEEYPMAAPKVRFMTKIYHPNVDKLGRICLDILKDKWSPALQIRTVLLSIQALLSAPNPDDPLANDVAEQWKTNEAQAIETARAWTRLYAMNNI

[5] = molecular target: T4, Corticotropin-releasing factor receptor 2/Corticotropin-releasing factor-binding protein (Homo sapiens, UniProt P24387+Q13324); experiment: Dose Response confirmation of uHTS hits for small molecule antagonists of the CRF-binding protein and CRF-R2 receptor complex.; details: read-out: IC50_Mean
T4 sequence (Q13324 whole entry): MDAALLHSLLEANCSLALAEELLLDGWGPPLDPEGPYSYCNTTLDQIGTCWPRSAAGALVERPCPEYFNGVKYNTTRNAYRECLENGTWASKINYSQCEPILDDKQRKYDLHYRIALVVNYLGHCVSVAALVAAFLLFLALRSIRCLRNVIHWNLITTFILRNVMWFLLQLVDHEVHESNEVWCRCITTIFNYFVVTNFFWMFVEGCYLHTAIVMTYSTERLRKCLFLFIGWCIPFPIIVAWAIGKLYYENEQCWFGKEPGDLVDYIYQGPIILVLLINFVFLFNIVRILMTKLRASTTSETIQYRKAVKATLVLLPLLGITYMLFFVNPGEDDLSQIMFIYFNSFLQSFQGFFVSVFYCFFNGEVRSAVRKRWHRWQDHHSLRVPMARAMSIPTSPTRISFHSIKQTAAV
T4 sequence (P24387 whole entry): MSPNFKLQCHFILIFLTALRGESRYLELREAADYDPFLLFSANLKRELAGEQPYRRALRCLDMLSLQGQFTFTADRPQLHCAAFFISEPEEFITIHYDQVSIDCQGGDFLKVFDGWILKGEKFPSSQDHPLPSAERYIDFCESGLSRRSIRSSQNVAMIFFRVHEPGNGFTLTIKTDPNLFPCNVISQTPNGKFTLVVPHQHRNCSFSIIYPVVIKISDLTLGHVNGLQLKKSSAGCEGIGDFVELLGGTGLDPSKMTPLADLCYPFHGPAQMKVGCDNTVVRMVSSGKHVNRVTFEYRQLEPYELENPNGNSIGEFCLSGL

[6] = molecular target: T4, Corticotropin-releasing factor receptor 2/Corticotropin-releasing factor-binding protein; experiment: activators of CRF receptor 2 with binding protein – uHTS hits, confirmation (AID 602473); details: read-out: EC50_Mean
[7] = molecular target: Intestinal-type alkaline phosphatase (Mus musculus, UniProt P24822); experiment: PubChem AID 488785
Sequence of Intestinal-type alkaline phosphatase (Mus musculus, UniProt P24822) (P24822 whole entry): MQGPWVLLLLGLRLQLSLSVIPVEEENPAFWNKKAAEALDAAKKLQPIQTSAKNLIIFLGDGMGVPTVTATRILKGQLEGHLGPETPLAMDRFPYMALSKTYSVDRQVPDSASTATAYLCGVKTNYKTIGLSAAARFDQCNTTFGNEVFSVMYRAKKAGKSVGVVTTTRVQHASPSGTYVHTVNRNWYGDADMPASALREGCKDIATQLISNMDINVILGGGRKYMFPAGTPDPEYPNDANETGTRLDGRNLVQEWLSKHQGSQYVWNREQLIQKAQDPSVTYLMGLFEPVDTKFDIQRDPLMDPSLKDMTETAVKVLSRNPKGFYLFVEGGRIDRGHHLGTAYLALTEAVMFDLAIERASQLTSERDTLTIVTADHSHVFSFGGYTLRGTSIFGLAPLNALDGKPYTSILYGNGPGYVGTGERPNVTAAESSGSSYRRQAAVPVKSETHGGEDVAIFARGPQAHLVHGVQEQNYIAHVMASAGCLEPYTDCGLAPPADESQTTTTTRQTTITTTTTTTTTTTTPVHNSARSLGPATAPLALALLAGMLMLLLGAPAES

[8] = molecular target: T5, Alkaline phosphatase, tissue-nonspecific isozyme (Homo sapiens, UniProt P05186); experiment: TNAP enzyme inhibition by screening hits, dose response, selectivity assay for mouse IAP inhibitor project, biochemical, human TNAP, uHTS hits (AID 488906)
T5 sequence (P05186 whole entry): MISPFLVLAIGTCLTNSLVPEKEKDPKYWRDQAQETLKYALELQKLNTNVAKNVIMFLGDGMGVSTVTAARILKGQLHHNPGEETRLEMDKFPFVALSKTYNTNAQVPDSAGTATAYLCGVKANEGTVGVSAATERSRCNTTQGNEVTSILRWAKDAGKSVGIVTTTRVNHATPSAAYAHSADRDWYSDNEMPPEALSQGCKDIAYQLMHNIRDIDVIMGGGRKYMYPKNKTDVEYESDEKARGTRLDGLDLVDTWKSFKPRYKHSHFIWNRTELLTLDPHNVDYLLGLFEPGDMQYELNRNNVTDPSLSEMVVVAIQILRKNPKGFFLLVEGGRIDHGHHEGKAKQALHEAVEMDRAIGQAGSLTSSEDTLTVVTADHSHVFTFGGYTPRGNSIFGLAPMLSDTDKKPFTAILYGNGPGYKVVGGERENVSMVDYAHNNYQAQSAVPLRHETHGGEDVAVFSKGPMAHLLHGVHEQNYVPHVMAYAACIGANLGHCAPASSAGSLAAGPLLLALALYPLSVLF

[9] = molecular target: Intestinal-type alkaline phosphatase (Homo sapiens, UniProt P09923); experiment: inhibition of human intestinal alkaline phosphatase – biochemical, dose response (AID 488876)
Sequence of Intestinal-type alkaline phosphatase (Homo sapiens, UniProt P09923) (P09923 whole entry): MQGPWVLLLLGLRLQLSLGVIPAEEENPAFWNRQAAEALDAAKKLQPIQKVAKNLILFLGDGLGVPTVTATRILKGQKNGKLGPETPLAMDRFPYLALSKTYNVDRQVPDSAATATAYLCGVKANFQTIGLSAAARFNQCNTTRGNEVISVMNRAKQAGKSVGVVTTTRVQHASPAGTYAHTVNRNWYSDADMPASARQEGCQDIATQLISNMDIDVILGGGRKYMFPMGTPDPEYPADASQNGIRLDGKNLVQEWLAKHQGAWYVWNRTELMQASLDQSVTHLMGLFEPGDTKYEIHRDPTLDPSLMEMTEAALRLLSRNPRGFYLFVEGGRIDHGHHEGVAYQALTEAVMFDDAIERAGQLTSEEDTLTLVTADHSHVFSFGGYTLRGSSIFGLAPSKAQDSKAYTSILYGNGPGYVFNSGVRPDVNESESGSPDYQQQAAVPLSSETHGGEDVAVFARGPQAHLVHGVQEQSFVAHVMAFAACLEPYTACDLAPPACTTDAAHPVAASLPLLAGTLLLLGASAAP

SMILES	IC50 [1]	IC50 [2]	IC50 [3]	IC50 [4]	IC50 [5]	EC50 [6]	IC50 [7]	IC50 [8]	IC50 [9]
O=[N+]([O-])c1cc(Br)cc(/C=N/n2cnnc2)c1O	> 79.4 µM (inactive)	> 79.4 µM (inactive)	> 79.4 µM (inactive)						
Cc1cc(NC(=O)Cn2c(=O)n(CCCCC(=O)NC3CCN(Cc4ccccc4)CC3)c(=O)c3ccccc32)[nH]n1	> 79.4 µM (inactive)	> 79.4 µM (inactive)	> 79.4 µM (inactive)	> 20 µM (inactive)					
CCOc1ccc(C(=O)Nc2ccc(Cl)cn2)cc1Cl	> 79.4 µM (inactive)	> 79.4 µM (inactive)	> 79.4 µM (inactive)		> 47.1 µM (inactive)	> 53 µM (inactive)			
CCOC(=O)NC(=O)C(=CNc1ccc(C)cc1)C(=O)NC(=O)OCC	> 79.4 µM (inactive)	> 79.4 µM (inactive)	> 79.4 µM (inactive)						
Cc1cc(F)ccc1S(=O)(=O)Nc1ccc(O)c(Sc2nnc[nH]2)c1							2.3 µM (active)	5.44 µM (active)	2.12 µM (active)
